Results from patent US10463644B2, “Uses of sesquiterpene lactone compounds and their derivatives in drugs preparation” (ACCENDATECH, priority 2013, dated 2019).
Read-outs that look alike come from different tables or passages of the source.

Tests used:
[1] = tested on: TNF-α secreted by synoviocyte; experiment: Content of TNF-α in culture supernatant of synoviocyte of RA model rats given test compound; type: in vivo; settings: rat RA model, dose 30 mg/kg.2d; normal control 0.38 ± 0.027, NaCl 0.74 ± 0.098
Method in brief: (§1)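 RA model rats received test compound at 30 mg/kg.2d, with normal control and NaCl groups run in parallel. Synoviocytes were then cultured from the animals, and the culture supernatant was assayed for secreted cytokine or PGE2.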

cancer stem cells = experiment: Survival rate of cancer stem cells after test compound is added (flow cytometry, Annexin V-FITC/PI, clinical specimen); type: cell-based, patient; settings: Homo sapiens, 18 h
Method in brief: (§2)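 Patient tumour or leukaemia cells, identified by cancer-specific stem-cell markers (CD34+/CD38+ for AML), are treated with compound for 18 hours in serum-free IMDM. Apoptosis is then measured as Annexin V-FITC/PI staining by flow cytometry.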

[2] = tested on: IL-1β secreted by synoviocyte; experiment: Content of IL-1β in culture supernatant of synoviocyte of RA model rats given test compound; type: in vivo; settings: rat RA model, dose 30 mg/kg.2d; normal control 0.16 ± 0.034, NaCl 0.49 ± 0.136
Method in brief: as §1

normal cells = experiment: Survival rate of normal cells after test compound is added (flow cytometry, Annexin V-FITC/PI); type: cell-based; settings: 18 h
Method in brief: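 Ficoll-isolated mononuclear cells from patient specimens (e.g. AML) in serum-free IMDM at 1×10^6/mL were exposed to compound for 18 hours. Cells were stained for stem-cell markers (CD34+CD38+ for AML) plus Annexin V-FITC/PI, and apoptosis was read by flow cytometry within one hour.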

cancer cells = experiment: Survival rate of cancer cells after test compound is added (flow cytometry, Annexin V-FITC/PI, clinical specimen); type: cell-based, patient; settings: Homo sapiens, 18 h, read-out: Survival rate (%) All cells (Stem cells and ordinary cells)
Method in brief: as §2

[3] = Head and neck squamous cell carcinomas
[4] = read-out: Survival rate (%) All cells (Stem cells and ordinary cells)
[5] = read-out: Survival rate (%) Stem cells

`C=C1C(=O)O[C@@H]2[C@@H]3[C@@H](CC[C@@]3(C)O)[C@](C)(O)CC[C@@H]12` [Compound 49] was tested. Which “Content of TNF-α in culture supernatant of synoviocyte (x ± s)” value [1] did it give?
Its value is 0.65 ± 0.046 ng/mL.

And the viability at 10 µM (cancer stem cells; AML)?
Its viability at 10 µM is 85%.

What about the viability at 20 µM (cancer stem cells; AML) of the same molecule?
The viability at 20 µM was 77%.

And the viability at 10 µM (cancer stem cells; Brain glioma)?
Its viability at 10 µM is 83%.

And the viability at 20 µM (cancer stem cells; Brain glioma)?
The viability at 20 µM was 79%.

What about the viability at 10 µM (cancer stem cells; Brain tumor) of the same molecule?
The viability at 10 µM was 83%.

What about the viability at 20 µM (cancer stem cells; Brain tumor) of the same molecule?
Its viability at 20 µM is 79%.

And the viability at 10 µM (cancer stem cells; Breast cancer)?
Its viability at 10 µM is 82%.

What about the viability at 20 µM (cancer stem cells; Breast cancer) of the same molecule?
Its viability at 20 µM is 79%.

And the viability at 10 µM (cancer stem cells; CLL)?
Its viability at 10 µM is 82%.

What about the viability at 20 µM (cancer stem cells; CLL) of the same molecule?
Its viability at 20 µM is 74%.

What about the viability at 10 µM (cancer stem cells; CML) of the same molecule?
Its viability at 10 µM is 87%.

And the viability at 20 µM (cancer stem cells; CML)?
The viability at 20 µM was 76%.

What about the viability at 10 µM (cancer stem cells; Children hepatoblastoma) of the same molecule?
The viability at 10 µM was 86%.

What about the viability at 20 µM (cancer stem cells; Children hepatoblastoma) of the same molecule?
The viability at 20 µM was 78%.

And the viability at 10 µM (cancer stem cells; Colon adenocarcinoma)?
Its viability at 10 µM is 85%.

And the viability at 20 µM (cancer stem cells; Colon adenocarcinoma)?
Its viability at 20 µM is 79%.

What about the viability at 10 µM (cancer stem cells; Colorectal cancer) of the same molecule?
Its viability at 10 µM is 82%.

And the viability at 20 µM (cancer stem cells; Colorectal cancer)?
Its viability at 20 µM is 74%.

And the viability at 10 µM (cancer stem cells; Gastric cancer)?
Its viability at 10 µM is 85%.

And the viability at 20 µM (cancer stem cells; Gastric cancer)?
Its viability at 20 µM is 77%.

What about the viability at 10 µM (cancer stem cells; Gastrointestinal tumor) of the same molecule?
The viability at 10 µM was 85%.

And the viability at 20 µM (cancer stem cells; Gastrointestinal tumor)?
The viability at 20 µM was 77%.

What about the viability at 10 µM (cancer stem cells; Glioma) of the same molecule?
Its viability at 10 µM is 82%.

And the viability at 20 µM (cancer stem cells; Glioma)?
Its viability at 20 µM is 76%.

And the viability at 10 µM (cancer stem cells; [3])?
The viability at 10 µM was 82%.

And the viability at 20 µM (cancer stem cells; [3])?
Its viability at 20 µM is 73%.

And the viability at 10 µM (cancer stem cells; Laryngeal cancer)?
Its viability at 10 µM is 84%.

What about the viability at 20 µM (cancer stem cells; Laryngeal cancer) of the same molecule?
The viability at 20 µM was 78%.

What about the viability at 10 µM (cancer stem cells; Liver cancer) of the same molecule?
Its viability at 10 µM is 85%.

And the viability at 20 µM (cancer stem cells; Liver cancer)?
Its viability at 20 µM is 79%.

What about the viability at 10 µM (cancer stem cells; Lung adenocarcinoma) of the same molecule?
Its viability at 10 µM is 84%.

And the viability at 20 µM (cancer stem cells; Lung adenocarcinoma)?
The viability at 20 µM was 78%.

What about the viability at 10 µM (cancer stem cells; Lung cancer) of the same molecule?
Its viability at 10 µM is 79%.

What about the viability at 20 µM (cancer stem cells; Lung cancer) of the same molecule?
The viability at 20 µM was 73%.

And the viability at 10 µM (cancer stem cells; Malignant melanoma)?
The viability at 10 µM was 82%.

And the viability at 20 µM (cancer stem cells; Malignant melanoma)?
Its viability at 20 µM is 79%.

What about the viability at 10 µM (cancer stem cells; Nasopharynx cancer) of the same molecule?
The viability at 10 µM was 84%.

And the viability at 20 µM (cancer stem cells; Nasopharynx cancer)?
Its viability at 20 µM is 77%.

What about the viability at 10 µM (cancer stem cells; Ovarian cancer) of the same molecule?
The viability at 10 µM was 86%.

And the viability at 20 µM (cancer stem cells; Ovarian cancer)?
The viability at 20 µM was 76%.

And the viability at 10 µM (cancer stem cells; Pancreatic cancer)?
The viability at 10 µM was 81%.

And the viability at 20 µM (cancer stem cells; Pancreatic cancer)?
Its viability at 20 µM is 75%.

What about the viability at 10 µM (cancer stem cells; Prostate cancer) of the same molecule?
Its viability at 10 µM is 85%.

What about the viability at 20 µM (cancer stem cells; Prostate cancer) of the same molecule?
Its viability at 20 µM is 77%.

What about the viability at 10 µM (cancer stem cells; Retinoblastoma) of the same molecule?
Its viability at 10 µM is 85%.

What about the viability at 20 µM (cancer stem cells; Retinoblastoma) of the same molecule?
Its viability at 20 µM is 77%.

And the viability at 10 µM (cancer stem cells; Skin cancer)?
Its viability at 10 µM is 85%.

What about the viability at 20 µM (cancer stem cells; Skin cancer) of the same molecule?
Its viability at 20 µM is 79%.

And the “Content of IL-1β in culture supernatant of synoviocyte (x ± s)” value [2]?
The value was 0.39 ± 0.075 ng/mL.

What about the viability at 10 µM (normal cells; [4]) of the same molecule?
The viability at 10 µM was 96%.

What about the viability at 10 µM (normal cells; [5]) of the same molecule?
The viability at 10 µM was 94%.

And the viability at 20 µM (normal cells; [4])?
The viability at 20 µM was 95%.

And the viability at 20 µM (normal cells; [5])?
Its viability at 20 µM is 92%.

And the viability at 10 µM (cancer cells; AML)?
The viability at 10 µM was 92%.

What about the viability at 20 µM (cancer cells; AML) of the same molecule?
Its viability at 20 µM is 89%.

What about the viability at 10 µM (cancer cells; Brain glioma) of the same molecule?
The viability at 10 µM was 88%.

What about the viability at 20 µM (cancer cells; Brain glioma) of the same molecule?
The viability at 20 µM was 87%.

And the viability at 10 µM (cancer cells; Brain tumor)?
The viability at 10 µM was 88%.

What about the viability at 20 µM (cancer cells; Brain tumor) of the same molecule?
Its viability at 20 µM is 87%.

What about the viability at 10 µM (cancer cells; Breast cancer) of the same molecule?
Its viability at 10 µM is 89%.

And the viability at 20 µM (cancer cells; Breast cancer)?
The viability at 20 µM was 87%.

And the viability at 10 µM (cancer cells; CLL)?
The viability at 10 µM was 91%.

What about the viability at 20 µM (cancer cells; CLL) of the same molecule?
Its viability at 20 µM is 85%.

What about the viability at 10 µM (cancer cells; CML) of the same molecule?
The viability at 10 µM was 90%.

And the viability at 20 µM (cancer cells; CML)?
Its viability at 20 µM is 86%.

What about the viability at 10 µM (cancer cells; Children hepatoblastoma) of the same molecule?
The viability at 10 µM was 93%.

What about the viability at 20 µM (cancer cells; Children hepatoblastoma) of the same molecule?
The viability at 20 µM was 92%.

What about the viability at 10 µM (cancer cells; Colon adenocarcinoma) of the same molecule?
Its viability at 10 µM is 93%.

What about the viability at 20 µM (cancer cells; Colon adenocarcinoma) of the same molecule?
Its viability at 20 µM is 86%.

What about the viability at 10 µM (cancer cells; Colorectal cancer) of the same molecule?
Its viability at 10 µM is 88%.

What about the viability at 20 µM (cancer cells; Colorectal cancer) of the same molecule?
Its viability at 20 µM is 85%.

And the viability at 10 µM (cancer cells; Gastric cancer)?
Its viability at 10 µM is 92%.

What about the viability at 20 µM (cancer cells; Gastric cancer) of the same molecule?
The viability at 20 µM was 89%.

What about the viability at 10 µM (cancer cells; Gastrointestinal tumor) of the same molecule?
Its viability at 10 µM is 92%.

What about the viability at 20 µM (cancer cells; Gastrointestinal tumor) of the same molecule?
Its viability at 20 µM is 89%.

What about the viability at 10 µM (cancer cells; Glioma) of the same molecule?
The viability at 10 µM was 88%.

What about the viability at 20 µM (cancer cells; Glioma) of the same molecule?
The viability at 20 µM was 89%.

And the viability at 10 µM (cancer cells; [3])?
The viability at 10 µM was 91%.

And the viability at 20 µM (cancer cells; [3])?
The viability at 20 µM was 87%.

And the viability at 10 µM (cancer cells; Laryngeal cancer)?
Its viability at 10 µM is 91%.

What about the viability at 20 µM (cancer cells; Laryngeal cancer) of the same molecule?
The viability at 20 µM was 88%.

What about the viability at 10 µM (cancer cells; Liver cancer) of the same molecule?
Its viability at 10 µM is 93%.

What about the viability at 20 µM (cancer cells; Liver cancer) of the same molecule?
The viability at 20 µM was 86%.

What about the viability at 10 µM (cancer cells; Lung adenocarcinoma) of the same molecule?
Its viability at 10 µM is 91%.

And the viability at 20 µM (cancer cells; Lung adenocarcinoma)?
The viability at 20 µM was 88%.

What about the viability at 10 µM (cancer cells; Lung cancer) of the same molecule?
Its viability at 10 µM is 88%.

And the viability at 20 µM (cancer cells; Lung cancer)?
Its viability at 20 µM is 82%.

And the viability at 10 µM (cancer cells; Malignant melanoma)?
The viability at 10 µM was 88%.

What about the viability at 20 µM (cancer cells; Malignant melanoma) of the same molecule?
Its viability at 20 µM is 87%.

And the viability at 10 µM (cancer cells; Nasopharynx cancer)?
Its viability at 10 µM is 93%.

What about the viability at 20 µM (cancer cells; Nasopharynx cancer) of the same molecule?
Its viability at 20 µM is 86%.

And the viability at 10 µM (cancer cells; Ovarian cancer)?
Its viability at 10 µM is 93%.

What about the viability at 20 µM (cancer cells; Ovarian cancer) of the same molecule?
The viability at 20 µM was 88%.

And the viability at 10 µM (cancer cells; Pancreatic cancer)?
The viability at 10 µM was 87%.

And the viability at 20 µM (cancer cells; Pancreatic cancer)?
Its viability at 20 µM is 83%.

And the viability at 10 µM (cancer cells; Prostate cancer)?
Its viability at 10 µM is 92%.

And the viability at 20 µM (cancer cells; Prostate cancer)?
The viability at 20 µM was 89%.

And the viability at 10 µM (cancer cells; Retinoblastoma)?
The viability at 10 µM was 92%.

And the viability at 20 µM (cancer cells; Retinoblastoma)?
The viability at 20 µM was 89%.

And the viability at 10 µM (cancer cells; Skin cancer)?
Its viability at 10 µM is 93%.

And the viability at 20 µM (cancer cells; Skin cancer)?
Its viability at 20 µM is 86%.
